Key:
[1] = tested on: 3-dpf Zebrafish Embryos Challenged with LPS (P. aeruginosa 60 μg/mL); type: in vivo, Danio rerio; details: P. aeruginosa LPS 60 μg/mL, compound 10 μM
In short: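 3-dpf PTU-treated AB zebrafish embryos exposed to 60 μg/mL P. aeruginosa LPS plus 10 μM compound (final) at 28.5 °C, n=16 per compound. Tail edema and mortality scored at 6 and 24 h post exposure; rescue judged against LPS-only controls at 24 h.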

[2] = biological target: T1, α1B (Homo sapiens, UniProt P35368); details: read-out: affinity (Ki) α1B; cited from earlier work
T1 sequence (P35368 1-520): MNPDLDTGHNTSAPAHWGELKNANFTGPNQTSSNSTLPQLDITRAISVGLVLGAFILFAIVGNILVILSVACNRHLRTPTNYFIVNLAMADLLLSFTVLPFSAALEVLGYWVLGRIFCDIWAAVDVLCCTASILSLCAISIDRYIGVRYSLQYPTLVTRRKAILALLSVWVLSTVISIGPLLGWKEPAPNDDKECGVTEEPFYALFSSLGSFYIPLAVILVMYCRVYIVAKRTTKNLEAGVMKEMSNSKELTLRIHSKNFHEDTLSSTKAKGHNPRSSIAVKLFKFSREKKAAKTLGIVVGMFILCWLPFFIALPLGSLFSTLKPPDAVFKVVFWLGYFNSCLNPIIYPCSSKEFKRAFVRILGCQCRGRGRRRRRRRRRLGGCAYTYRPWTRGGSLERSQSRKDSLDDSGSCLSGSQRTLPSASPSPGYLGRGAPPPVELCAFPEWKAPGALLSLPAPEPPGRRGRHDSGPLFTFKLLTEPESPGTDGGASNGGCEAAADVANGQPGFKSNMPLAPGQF

[3] = biological target: T2, muscarinic M1 receptor (Homo sapiens, UniProt P11229); details: at 10 μM; cited from earlier work
T2 sequence (P11229 1-460): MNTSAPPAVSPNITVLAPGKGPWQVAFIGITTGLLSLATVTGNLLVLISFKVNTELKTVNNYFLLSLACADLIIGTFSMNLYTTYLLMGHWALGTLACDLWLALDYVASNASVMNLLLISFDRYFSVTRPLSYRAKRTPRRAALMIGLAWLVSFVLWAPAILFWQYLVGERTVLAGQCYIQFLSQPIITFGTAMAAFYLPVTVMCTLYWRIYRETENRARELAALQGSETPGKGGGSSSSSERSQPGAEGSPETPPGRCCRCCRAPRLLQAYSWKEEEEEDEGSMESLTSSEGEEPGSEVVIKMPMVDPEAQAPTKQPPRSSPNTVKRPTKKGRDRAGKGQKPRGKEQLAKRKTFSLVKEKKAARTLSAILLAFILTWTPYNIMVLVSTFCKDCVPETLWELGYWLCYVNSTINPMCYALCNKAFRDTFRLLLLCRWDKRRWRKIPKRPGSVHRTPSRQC

[4] = biological target: D3 (Homo sapiens, UniProt P35462); details: read-out: affinity (Ki) D3; cited from earlier work
Sequence of D3 (P35462 whole entry): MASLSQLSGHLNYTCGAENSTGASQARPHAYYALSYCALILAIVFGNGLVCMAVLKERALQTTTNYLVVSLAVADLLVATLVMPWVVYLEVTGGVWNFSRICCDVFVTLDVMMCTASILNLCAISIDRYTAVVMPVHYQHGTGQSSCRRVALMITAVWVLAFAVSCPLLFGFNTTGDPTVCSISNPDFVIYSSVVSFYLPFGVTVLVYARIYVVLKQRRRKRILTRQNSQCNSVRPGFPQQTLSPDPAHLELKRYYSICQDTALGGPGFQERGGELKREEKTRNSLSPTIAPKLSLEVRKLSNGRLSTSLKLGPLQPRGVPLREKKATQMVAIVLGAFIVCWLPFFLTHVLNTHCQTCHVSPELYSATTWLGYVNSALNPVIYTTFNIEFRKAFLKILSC

[5] = tested on: zebrafish (4 dpf pre-treated, LPS exposure at 5-dpf) challenged with P. aeruginosa LPS 60 μg/mL; type: in vivo, Danio rerio
In short: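 PTU-treated 4 dpf zebrafish embryos received a 24-hour drug pre-treatment at 28.5 °C, alongside an untreated parallel group, before challenge at 5 dpf with P. aeruginosa LPS at 60 μg/mL. Tail edema and mortality were scored at 6 and 24 h post exposure, followed by a neurobehavioral test.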

[6] = number of n = 16 fish, 24-hour 10 μM drug pre-treatment
[7] = number of n = 16 fish, no 24-hour pre-treatment

Compound: O=c1ccc2ccc(OCCCCN3CCN(c4cccc5sccc45)CC3)cc2[nH]1 [Compound 45, Brexpiprazole]
- Percent Rescue (Mort + Tail Edema) ([1]; 3-dpf embryos, 24 hours, n=16): 100%
- rescue of tail edema and mortality (sepsis rescue rate) at 3-dpf ([1]; 3-dpf, 24 hours): 100%
- 3 dpf Embryos Percent Rescue (Mort + Tail Edema) ([1]; initial 3-dpf screen shown for reference): 100%
- Ki [2]: 0.17 nM
- inhibition, muscarinic M1 receptor [3]: 67%
- Ki [4]: 1.1 nM
- Pre-Treatment Rescue (n = 16) ([5]; 24-hour drug pre-treatment, P. aeruginosa LPS 60 μg/mL): 94%
- No Pre-Treatment Rescue (n = 16) ([5]; no 24-hour drug pre-treatment, P. aeruginosa LPS 60 μg/mL): 94%
- 24 hour Tail Edema, No-Drug Pretreatment ([5]; number of n = 16 fish, 10 μM drug with LPS 60 μg/mL, no 24-hour pre-treatment): 1 fish
- 24 Hour Mortality and Tail Edema, Drug Pretreatment [5, 6]: 1 fish
- 24 Hour Mortality, Drug Pretreatment [5, 6]: 1 fish
- 24 hour Tail Edema, Drug Pretreatment ([5]; number of n = 16 fish, 24-hour 10 μM drug pre-treatment before LPS 60 μg/mL): 0 fish
- 24 Hour Mortality and Tail Edema, No-Drug Pretreatment [5, 7]: 1 fish
- 24 Hour Mortality, No Drug Pretreatment [5, 7]: 0 fish

Source: patent publication US20250085273A1, “NOVEL RAPID DRUG DISCOVERY FOR SEPSIS AND AGENTS FOR USE AS SEPSIS THERAPY” (priority 2023, published 2025)
